Data as given in patent US9765115B2, “Inhibitors of metastasis, methods of generating such inhibitors and their therapeutic applications” (Board of Supervisors of Louisiana State University acting …, priority 2011, dated 2017).
Positions count from the first letter of the chain named. Entries after “also recorded” stand apart in the source; their conditions may differ.

Tests used:
Format in all cases: cell-based
[1] = tested on: LNCaP, DU-145 and PC-3M cells; test: Matrigel in vitro invasion assay; conditions: 50 nM CT, 48 h
Description: Invasion experiments were conducted in Matrigel™ invasion chambers as previously described (Sabbisetti et al., 2005).
Whether CT produces similar effects in LNCaP, PC-3M and DU-145 cell lines, which endogenously express CTR, was examined as shown in FIG. 1A. FIGS. 9A-9B depict the effect of CT on tight junction (TJ) disruption as measured using TER and PCP in the three prostate cancer cell lines—LNCaP, PC-3M, and DU-145. Cells were serum-starved for 4 hours, then treated with and without 50 nM CT, before measuring TER as described above. In FIG. 9B, cells were treated with and without 50 nM CT, and PCP determined by diffusion of ˜4 kDa TRITC-conjugated dextran from the upper to the lower chamber in one hour. The results are expressed as μg/ml/hour of TRITC-Dextran diffused ±SEM (n=6; *p<0.05 (−CT v +CT, One way ANOVA and Newman-Keul's test)). FIG. 9C depicts effects of CT on cell invasion in the same three cell lines—PC-3M, LNCaP, and DU145. Cells were added to upper insert of invasion chambers with or without 50 nM CT, and cells that passed through the Matrigel™ barrier were counted after 48 h. The results are expressed as mean number of invaded cells per 400× field ±SEM (n=6; *p<0.05).

[2] = target: T1, CTR-ZO-1 interaction (Homo sapiens, UniProt P30988); test: CTR-ZO-1 co-immunoprecipitation; conditions: for co-precipitation of ZO-1 by CTRwt: 3 min, PC-3 cells
T1 construct: PCR generated full length CTRwt and CTRΔESS cDNAs were cloned directionally into pcDNA3.1 mammalian expression vector; FLAG (N); expressed in transfected cells; host or cells: PC-31 / PC-3 cells stably expressing FLAG-CTRwt; ZO-1 is the cells' own
T1 sequence (P30988 25-474): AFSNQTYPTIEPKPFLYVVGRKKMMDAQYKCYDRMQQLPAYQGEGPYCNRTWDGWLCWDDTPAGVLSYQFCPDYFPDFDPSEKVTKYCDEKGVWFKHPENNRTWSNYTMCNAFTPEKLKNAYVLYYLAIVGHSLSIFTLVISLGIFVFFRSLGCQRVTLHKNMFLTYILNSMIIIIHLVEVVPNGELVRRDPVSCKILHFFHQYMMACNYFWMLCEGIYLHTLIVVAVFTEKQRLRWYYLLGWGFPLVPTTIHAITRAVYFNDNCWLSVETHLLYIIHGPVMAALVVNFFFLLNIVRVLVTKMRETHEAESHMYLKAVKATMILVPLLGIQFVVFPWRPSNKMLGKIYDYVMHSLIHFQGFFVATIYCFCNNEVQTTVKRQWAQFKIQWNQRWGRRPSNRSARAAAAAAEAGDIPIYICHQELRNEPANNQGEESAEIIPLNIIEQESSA
Description: (§1) Serum-starved PC-31-V, PC-31-CTRwt or PC-31-CTRΔESS cells (2×10^6 per 100 mm dish) were stimulated with or without 50 nM CT for 3 min, washed, and lysed in the IP buffer as previously described (von Zastrow et al., 1994). CTR in normalized lysate proteins was immunoprecipitated with anti-FLAG EZ-view beads (Sigma Chemical Co., St. Louis, Mo.), and eluted with FLAG peptide (600 μg/ml in PBS). CTR immunoprecipitates were processed for ZO-1 immunoblotting. To control for protein loading and transfer, the blots were stripped and reprobed with immunoprecipitating antibody.
(§2) PC-31 cells stably expressing either FLAG-CTRwt or FLAGCTRΔESS were treated with or without CT for 3 min. The analysis of FLAG-CTR IPs confirmed that only FLAG-CTRwt, but not FLAG-CTRΔESS, co-precipitated ZO-1 (FIG. 3B). […] The effect of multiple CT concentrations on CTR-ZO-1 co-precipitation was tested in PC-3 cells. […] However, co-precipitation of ZO-1 by CTRwt was strong in PC-3 cells stimulated with 10 nM CT, and was even stronger in the cells receiving 100 nM CT.
(§3) As shown above, CTR binds to ZO-1 through PDZ interaction (i.e. PDZ ligand on C-tail of CTR binds to the PDZ domain of ZO-1). To attenuate this binding, ZO-1 was saturated with a small C-terminal peptide of CTR sequence containing the PDZ-binding motif. Since ZO-1 is an intracellular membrane protein, the interfering peptide was delivered inside the plasma membrane. It has been shown that trans-activating transcriptional activator (TAT) protein (86-mer polypeptide) from HIV-1 enters mammalian cells when added to the surrounding media (Frankel et al., 1988; Green et al., 1989). Certain small regions of such proteins (10-16-mers) called protein transduction domains (PTDs), also efficiently traverse biological membranes (Elliott et al., 1997). Therefore, a fusion peptide Pep 1 was synthesized of TAT-peptide sequences of HIV virus and CTR-C(N-[…]-C (SEQ ID NO:2), CTR-C sequence underlined). The first experiment was to see if Pep I binds to ZO-1 in reversible fashion. For this, amino acid Y in Pep I was labeled with ^125I, and the binding with ZO-1 analyzed in the presence/absence of unlabeled Pep I (1000×; 20 μM). PC-3CTR-ZO-1-MYC cells were first incubated with unlabeled Pep I or control peptide (20 μM) for 5 min. The cells were then incubated with ^125I-pep I or C for 25 min. The cells were then washed in IP buffer, treated with DSP, and lysed. ZO-1 IPs were obtained, fractionated on SDS-PAGE, and autoradiographed. […] Next, whether Pep I competes with CTR for ZO-1 binding was tested. For this, PC-3-CTR-wt cells were treated with CT (50 nM) and or Pep I (50 μM) for 15 min. The CTR IPs were then immunoblotted and probed for ZO-1 immunoreactivity. […] Next, the biological impact of this phenomenon was examined by testing the effect of Pep I on CTR-stimulated invasion.

[3] = target: T2, CTR-ZO-1 interaction (Homo sapiens, UniProt P30988, E471A/S472A/S473A); test: CTR-ZO-1 co-immunoprecipitation; conditions: all CT concentrations
T2 construct: PCR generated full length CTRwt and CTRΔESS cDNAs were cloned directionally into pcDNA3.1 mammalian expression vector; FLAG (N); expressed in transfected cells; host or cells: PC-31 / PC-3 cells stably expressing FLAG-CTRwt; ZO-1 is the cells' own
T2 sequence (P30988 with tags, fused parts or gaps): T1 sequence (P30988 25-474) with E447A, S448A, S449A
Description: as §1, §2, §3

## calcitonin [CT]
[1]
  invasion: significantly increased
[2]; 1 nM CT
  co-precipitation of ZO-1 by CTRwt: barely detectable
[2]; 10 nM CT
  co-precipitation of ZO-1 by CTRwt: strong
[2]; CT 50 nM
  co-precipitation of ZO-1 with CTRwt, activated versus dormant: much more efficiently; also recorded: increased
[3]
  co-precipitation of ZO-1 by CTRΔESS: not co-precipitated
